{"source": "patent US9801908B2", "about": "“Treatment for chitin-containing microorganisms” (BENCHMARK ANIMAL HEALTH LIMITED, priority 2013, dated 2017)", "key": {"[1]": {"tested_on": "Atlantic salmon eyed eggs", "conditions": "in vivo"}, "[2]": {"tested_on": "Saprolegnia zoosporangia"}, "[3]": {"tested_on": "Saprolegnia spores", "conditions": "BA 0.5 g/L continuous, yolk sac fry, natural outbreak", "excerpt": "The safety of continuous exposure of salmon fry to a low concentration of BA (0.5 g/L) was also investigated to understand what extent BA will protect Atlantic salmon fry from becoming infected by Saprolegnia spores during a natural outbreak of saprolegniosis in the aquarium."}, "[4]": {"tested_on": "Saprolegnia spores (S. diclina VIO 2739, S. parasitica VIO 2741, aquarium water)", "conditions": "BA 1-4 g/L, 4 hours/day, 14 days", "description": "The ability of BA to protect dead eggs from becoming infected with Saprolegnia spores was investigated. The rationale is that dead eggs may be the first to get infected under natural conditions and act as a source of infection for live eggs. Combined treatment of BA and PA was also tested.\nFive egg groups were used, each group divided equally into 3 smaller sub-groups. 25 live eggs plus 5 dead ones were placed in each of the sub-groups (90 eggs per group). […] In the groups, eggs were supplied with continuous slow water flow of 1 L/min. The aquarium water at the facilities of the Norwegian Veterinary Institute/Norwegian School of Veterinary Science contains Saprolegnia zoospores and was used as source of infection. […] Treatment with BA was carried out as follows. The water flow was stopped and each group, except the non-treated control group, was treated with BA at concentrations of 1, 2, 3, and 4 g/L. The treatment period was 4 hours/day after which water flow was resumed. Dead eggs were inspected daily over 14 days for their colonization with Saprolegnia spores and the presence of growing hypha. Number of dead eggs per group and hatching rates were recorded."}, "[5]": {"tested_on": "Saprolegnia spores", "experiment": "Germination and colonization of Saprolegnia spores on sesame seeds", "format": "cell-based, Saprolegnia parasitica", "parameters": "key to grade of germination and colonization of Saprolegnia spores on sesame seeds: Grade 0: no germination no growing mycelia on the sesame seeds; Grade 1: germinating spores no growing mycelia on the sesame seeds; Grade 2: germinating spores very few growing mycelia on the sesame seeds; Grade 3: germinating spores profuse growing mycelia on the sesame seeds", "conditions": "for grade of germination and colonization of Saprolegnia spores on sesame seeds: 48 hours incubation", "experimental": "BA was diluted to desired concentration in Sterilized Aquarium Water (SAW). […] Saprolegnia zoospores were produced according to the method described previously by Stueland et al. […] Sterilized aquarium water (SAW) was used as a non-treated control and bronopol (Pyceze Vet.® 500 g bronopol/L) was used as a positive control. Each BA concentration and controls were tested in triplicates and incubated at 20° C. 24 hours later, plates were examined microscopically."}, "[6]": {"tested_on": "Saprolegnia hyphae/mycelium", "description": "The plates were observed microscopically to confirm the attachment of the spores to the sesame seeds and the presence of the early growing mycelia. BA was added at 12 h post infection of the sesame seeds at the same concentrations mentioned above to all tested plates except controls. Plates were incubated further at 20° C. SAW was used as non-treated control and bronopol as positive control. Plates were inspected microscopically after 24 h for advanced mycelial growth."}, "[7]": {"tested_on": "Saprolegnia sp.", "conditions": "4 h once a day", "description": "The experimental design was as described in experiment 1 with the same number of eggs per replicate (N=27±2) and the number of infected eggs introduced per replicate (3 per 27 eggs). The difference was that the eggs were exposed to higher BA concentrations (1, 2, 3, 4 g/L) for 4 h once a day over the course of the experiment which lasted for 14 days in total. After 4 h of treatment the flow of aquarium water was resumed. The same treatment was applied 24 h later and every day up to 14 days. The time between treatments was the same throughout the experiment. The number of dead eggs, presence or absence of infection and hatching rates were recorded over the duration of the experiment.\nInfected dead eggs that were used as source of infection in the BA treated groups and the non-treated control were examined microscopically to observe the effect of BA treatment on the growing mycelia."}, "[8]": {"tested_on": "Saprolegnia spores and zoosporangia", "description": "At indicated time points BA was replaced with SAW. The ability of treated spores to germinate and colonize sesame seeds was recorded 24 h following the treatment removal. Treated zoosporangia were also examined for their ability to release spore. Spores and zoosporangia in SAW were used as a non-treated control. Results were confirmed with fluorescent microscopy using SYTO 9 dye (Invitrogen®) 5 mM solution in DMSO."}, "[9]": {"conditions": "treated 96 h in BA, then 24 h in SAW"}}, "note": "Where two headings read alike, the source gives them in different places.", "data": [{"smiles": "OB(O)O", "note": "[boric acid]", "values": [{"measurement": "impact on hatchability and viability of eggs or fry", "setting": "[1]", "value": "no negative impact"}, {"measurement": "production and release of zoospores from young zoosporangia", "setting": "[2]; 1 g/L BA, 12 and 24 h", "value": "interferes with the production and subsequent release of zoospores"}, {"measurement": "sign observed in zoosporangia after treatment", "setting": "[2]; 1 g/L BA, 12 and 24 h", "value": "Vacuolation of the entire of zoosporangia"}, {"measurement": "spore production and release from zoosporangia (FIG. 2 b2)", "setting": "[2]; 24 hours exposure to boric acid", "value": "absence of spore production and release"}, {"measurement": "fry mortality rates compared to non-treated control", "setting": "[3]", "value": "Significant reduction"}, {"measurement": "attachment between dead and live eggs", "setting": "[4]", "value": "no attachment"}, {"measurement": "hyphal growth on dead eggs", "setting": "[4]", "value": "No hyphal growth"}, {"measurement": "grade of germination and colonization of Saprolegnia spores on sesame seeds", "setting": "[5]; \"boric acid g/L\" (concentration not given)", "value": "Grade 0"}, {"measurement": "germination of inoculated Saprolegnia spores", "setting": "[5]; BA 1 g/L and above", "value": "did not germinate"}, {"measurement": "germination and colonization of sesame seeds by Saprolegnia spores", "setting": "[5]; BA below 0.2 g/L", "value": "germinated and colonized sesame seeds"}, {"measurement": "growth rate compared to the non-treated control", "setting": "[5]; BA below 0.2 g/L", "value": "slow"}, {"measurement": "grade of germination and colonization of Saprolegnia spores on sesame seeds", "setting": "[5]; boric acid 0.2-0.4 g/L", "value": "Grade 2"}, {"measurement": "grade of germination and colonization of Saprolegnia spores on sesame seeds", "setting": "[5]; boric acid 0.5-0.9 g/L", "value": "Grade 1"}, {"measurement": "grade of germination and colonization of Saprolegnia spores on sesame seeds", "setting": "[5]; boric acid <0.2 g/L", "value": "Grade 3"}, {"measurement": "hyphael growth grade", "setting": "[6]; BA 0.5 g/L and below", "value": "grade 1"}, {"measurement": "mycelia growth", "setting": "[6]; BA above 0.5 g/L", "value": "no further growth"}, {"measurement": "hyphal attachment between infected dead and live eggs", "setting": "[7]; BA 1, 2, 3 or 4 g/L, 14 days", "value": "No hyphal attachment"}, {"measurement": "mycelium on dead eggs used as source of infection", "setting": "[7]; all treated groups, BA 1-4 g/L", "value": "scanty attachment of mycelium"}, {"measurement": "spore release of zoosporangia 24 h after exposure terminated", "setting": "[8]; BA 1 g/L for 12 h", "value": "showed spore release"}, {"measurement": "spore release of zoosporangia 24 h after exposure terminated", "setting": "[8]; BA 1 g/L for 24 h", "value": "showed spore release"}, {"measurement": "spore release of zoosporangia after exposure terminated", "setting": "[8]; BA 1 g/L for 72 h", "value": "no spore release"}, {"measurement": "spore release of zoosporangia after exposure terminated", "setting": "[8]; BA 1 g/L for 96 h", "value": "no spore release"}, {"measurement": "colonization of seeds (FIG. 3c-1)", "setting": "[8]; treated 24 h with BA, then 24 h in SAW", "value": "Thin hyphae can be seen projecting out from seeds"}, {"measurement": "appearance of zoosporangium (FIG. 3d-2)", "setting": "[8]; [9]", "value": "condensed staining and a thin wall"}, {"measurement": "colonization of seeds (FIG. 3d)", "setting": "[8]; [9]", "value": "no colonization on seeds"}]}, {"smiles": "O=[N+]([O-])C(Br)(CO)CO", "note": "[bronopol, reference compound]", "values": [{"measurement": "mortality of eggs", "setting": "[1]; Atlantic salmon, 2 h", "value": 100, "unit": "%"}, {"measurement": "grade of germination and colonization of Saprolegnia spores on sesame seeds", "setting": "[5]; positive control (Pyceze Vet. 500 g bronopol/L)", "value": "Grade 0"}]}]}
